In patent US5786517A, “Metal-ligand complex catalyzed processes” (Union Carbide Chemicals & Plastics Technology Corporation, priority 1996, dated 1998):

Experiments:
[1] = Partition of hydroxy butyl phosphonic acid between butyraldehyde and water (Example 1); assay type: physicochemical
Protocol: Into a glass vessel was added a stock solution of 536 parts per million of hydroxy butyl phosphonic acid in butyraldehyde. This solution was contacted with water in a weight ratio of 1.18:1 grams water to grams aldehyde/acid stock solution. The aldehyde and water phase were contacted thoroughly to allow the separation of acid between the organic and the aqueous layer to reach equilibrium. The aldehyde phase was analyzed for hydroxy butyl phosphonic acid by ion chromatography after contact with the water giving 52.3 parts per million of hydroxy butyl phosphonic acid. The water phase was also analyzed by ion chromatography for the acid. The water phase contained 414 parts per million of hydroxy butyl phosphonic acid. The partition coefficient between the water and the butyraldehyde phase was 414/52.3 or 7.92.

[2] = Extraction of base from butyraldehyde into equimolar aqueous H3PO3 (Example 5, Table A); assay type: physicochemical
Protocol: The following series of experiments were performed in order to determine the relationship of the pKa of a base to the effectiveness of the base to remain in the organic phase upon contact with an equimolar aqueous acid solution. In all cases the experiments were performed under nitrogen, unless otherwise specified.
Solutions were prepared by dissolving a quantity of acid or base in solvent so that the final concentration was equal to 0.1 moles/liter. The 1×10^-3 moles/liter solutions were prepared by taking an aliquot of the 0.1 moles/liter solution and diluting to the specified concentration. The 1×10^-5 moles/liter solutions were prepared in the same manner as the 1×10^-3 moles/liter solution with the modification of using an aliquot of the 1×10^-3 moles/liter solution in place of the 0.1 moles/liter solution.
In each extraction experiment, 5 milliliters of base solution in butyraldehyde was added to a clean, dry vial. To this vial was added 5 milliliters of equimolar H3 PO3 solution. The resulting mixture was rapidly shaken for several minutes and then allowed to phase separate. A 1 milliliter aliquot of the aqueous layer was then transferred to a clean, dry vial. To this vial was added 1 milliliter of pH 7 sodium/potassium phosphate buffer and 0.1 milliliter of Tergitol® 15-S-9 surfactant. The solution was shaken vigorously, and an aliquot was analyzed by high performance liquid chromatography for base content. The amount of base was then compared with a dichloromethane solution at the initial concentration. The partition coefficients calculated are for partitioning of the base from the organic phase to the water phase and is defined as K=amount of base in the water phase/amount of base in the organic phase.

[3] = Stability of Ligand F in rhodium-containing butyraldehyde solution by HPLC (Examples 2-4)
[4] = 536 ppm stock in butyraldehyde, 1.18:1 grams water to grams aldehyde/acid stock, ion chromatography
[5] = base 1 × 10^-3 moles/liter in butyraldehyde, H3PO3 1 × 10^-3 moles/liter
[6] = base 1 × 10^-5 moles/liter in butyraldehyde, H3PO3 1 × 10^-5 moles/liter

| Molecule | K (amount of base in the water phase/amount of base in the organic phase) [2, 5] | K (amount of base in the water phase/amount of base in the organic phase) [2, 6] | further results |
| --- | --- | --- | --- |
| hydroxy butyl phosphonic acid |  |  | hydroxy butyl phosphonic acid in aldehyde phase after contact with water [1, 4]: 52.3 parts per million; hydroxy butyl phosphonic acid in water phase [1, 4]: 414 parts per million; partition coefficient between the water and the butyraldehyde phase ([1]; water/butyraldehyde, 414/52.3): 7.92 |
| O=C1CCCN1Cc1ccccc1 [1-benzyl-2-pyrrolidinone] | 0.02 | 0.00 |  |
| c1ccc2ncccc2c1 [quinoline] | 0.43 | 1.20 |  |
| c1ccc2[nH]nnc2c1 [benzotriazole] | 0.08 | 0.00 |  |
| CC(C)(C)c1cc(-c2cc(C(C)(C)C)cc(C(C)(C)C)c2Op2oc3ccccc3c3ccccc3o2)c(Op2oc3ccccc3c3ccccc3o2)c(C(C)(C)C)c1 [Ligand F] |  |  | concentration of Ligand F after 24 hours ([3]; 0.017 grams H3PO3 added to 12 gram solution, decreased from 0.39, 24 hours): 0.12 percent by weight; concentration of Ligand F after 72 hours ([3]; 0.017 grams H3PO3 added to 12 gram solution, initially 0.39, 72 hours): 0.04 percent by weight; change in concentration of Ligand F ([3]; after either 24 or 72 hours, 200 ppm rhodium, 0.39 wt% Ligand F in butyraldehyde, no added acid or benzimidazole): No change in the concentration |
